Source: ChEMBL document CHEMBL3885861, “Open TG-GATES”

Species: Rattus norvegicus
Test: Open TG-GATES - Regimen: Single
Format: toxicity, organism-based, Sprague-Dawley
Design: regimen Single, gender Male, age 6 weeks
Details: in vivo, po, 300 mg/kg, route gavage, dose level Middle; for APTT / Bas / Eos / Fbg / Hb / Ht / Lym / MCH / MCHC / MCV / Mono / Neu / PT / Plat / RBC / Ret / WBC: tissue Blood; for KIDNEY_L / KIDNEY_R / KIDNEY_TOTAL: tissue Kidney; for LIVER: tissue Liver; for A/G / ALP / ALT / AST / BUN / CRE / Ca / Cl / DBIL / GLC / IP / K / LDH / Na / PL / RALB / TBIL / TC / TG / TP / gamma-GTP: tissue Plasma

Compound: COC1=CC(=O)C[C@@H](C)[C@]12Oc1c(Cl)c(OC)cc(OC)c1C2=O [GRISEOFULVIN]
- TERMINAL_BW (9 h): 210.4 g
- APTT (9 h): 17.3 s
- Bas (9 h): 0%
- Eos (9 h): 0.8%
- Fbg (9 h): 214 mg/dL
- Hb (9 h): 12.9 g/dL
- Ht (9 h): 38.2%
- Lym (9 h): 79.4%
- MCH (9 h): 21.4 pg
- MCHC (9 h): 33.9%
- MCV (9 h): 63.1 fL
- Mono (9 h): 2.6%
- Neu (9 h): 17%
- PT (9 h): 13.6 s
- Plat (9 h): 115.4 x10_4/uL
- RBC (9 h): 605 x10_4/ul
- Ret (9 h): 8.2%
- WBC (9 h): 82.6 x10_2/uL
- KIDNEY_L (9 h): 1 g
- KIDNEY_R (9 h): 1 g
- KIDNEY_TOTAL (9 h): 2 g
- LIVER (9 h): 8.7 g
- A/G (9 h): 1.6
- ALP (9 h): 1051.6 IU/L
- ALT (9 h): 30.8 IU/L
- AST (9 h): 63 IU/L
- BUN (9 h): 11.4 mg/dL
- CRE (9 h): 0.3 mg/dL
- Ca (9 h): 10.6 mg/dL
- Cl (9 h): 103.8 meq/L
- DBIL (9 h): 0.07 mg/dL
- GLC (9 h): 200.2 mg/dL
- IP (9 h): 10.3 mg/dL
- K (9 h): 3.8 meq/L
- LDH (9 h): 132.4 IU/L
- Na (9 h): 141.6 meq/L
- PL (9 h): 140.6 mg/dL
- RALB (9 h): 3.3 g/dL
- TBIL (9 h): 0.1 mg/dL
- TC (9 h): 75 mg/dL
- TG (9 h): 43 mg/dL
- TP (9 h): 5.4 g/dL
- gamma-GTP (9 h): 1.2 IU/L
- TERMINAL_BW (24 h): 223.4 g
- APTT (24 h): 18.9 s
- Bas (24 h): 0%
- Eos (24 h): 0.8%
- Fbg (24 h): 204.6 mg/dL
- Hb (24 h): 13.3 g/dL
- Ht (24 h): 40%
- Lym (24 h): 76.2%
- MCH (24 h): 21.5 pg
- MCHC (24 h): 33.3%
- MCV (24 h): 64.5 fL
- Mono (24 h): 2.4%
- Neu (24 h): 19.8%
- PT (24 h): 12.7 s
- Plat (24 h): 125.2 x10_4/uL
- RBC (24 h): 621 x10_4/ul
- Ret (24 h): 7.3%
- WBC (24 h): 85.6 x10_2/uL
- KIDNEY_L (24 h): 1 g
- KIDNEY_R (24 h): 1 g
- KIDNEY_TOTAL (24 h): 1.9 g
- LIVER (24 h): 10.9 g
- A/G (24 h): 1.8
- ALP (24 h): 958.6 IU/L
- ALT (24 h): 42.8 IU/L
- AST (24 h): 64.8 IU/L
- BUN (24 h): 14.6 mg/dL
- CRE (24 h): 0.4 mg/dL
- Ca (24 h): 10.9 mg/dL
- Cl (24 h): 103.8 meq/L
- DBIL (24 h): 0.1 mg/dL
- GLC (24 h): 208 mg/dL
- IP (24 h): 8.1 mg/dL
- K (24 h): 4.2 meq/L
- LDH (24 h): 119.8 IU/L
- Na (24 h): 141.4 meq/L
- PL (24 h): 144.6 mg/dL
- RALB (24 h): 3.4 g/dL
- TBIL (24 h): 0.2 mg/dL
- TC (24 h): 76.8 mg/dL
- TG (24 h): 102 mg/dL
- TP (24 h): 5.4 g/dL
- gamma-GTP (24 h): 1.4 IU/L
